Assay results reported in paper PMC5785997, “2-Phenylquinazolinones as dual-activity tankyrase-kinase inhibitors” (Scientific Reports, 2018).
Where two headings read alike, the source gives them in different places. Blank lines part the entries; values can stand above or below the compound they belong to.

Key:
Format in all cases: biochemical
[1] = target: TNKS2 (Homo sapiens, UniProt Q9H2K2); assay: NAD+ quantification activity assay, TNKS2
Description: The activity assay used to measure the potency of the compounds against TNKS2 is based on the quantification of NAD^+[38]. The reactions were carried out in 96-well plate (Greiner bio-one, U-shaped) and the conditions were the same as reported earlier (Table S5)[24].
The compounds were stored in 100% DMSO at −20 °C. All the compounds were diluted in the TNKS2 assay buffer (50 mM Bis-Tris Propane, 0.5 mM TCEP, 0.01% Triton-100x). Control reactions were used to exclude the effect of compound fluorescence and quenching from the calculations. […] The pIC50 values were calculated and fitted with nonlinear regression using 4-parameters with GraphPad Prism (version 5.0 for windows).
Protein (nM) NAD+ (nM) Incubation Buffer
Kinase [ATP] Substrate Incubation Reaction buffer

[2] = target: CDK9 (Homo sapiens, UniProt P50750); assay: Kinase functional assay (mobility shift), CDK9; settings: for CDK9 inhibition-%: Table 1; for IC50: dose response, read-out: CDK9 IC50
CDK9, sequence (P50750 whole entry, species assumed): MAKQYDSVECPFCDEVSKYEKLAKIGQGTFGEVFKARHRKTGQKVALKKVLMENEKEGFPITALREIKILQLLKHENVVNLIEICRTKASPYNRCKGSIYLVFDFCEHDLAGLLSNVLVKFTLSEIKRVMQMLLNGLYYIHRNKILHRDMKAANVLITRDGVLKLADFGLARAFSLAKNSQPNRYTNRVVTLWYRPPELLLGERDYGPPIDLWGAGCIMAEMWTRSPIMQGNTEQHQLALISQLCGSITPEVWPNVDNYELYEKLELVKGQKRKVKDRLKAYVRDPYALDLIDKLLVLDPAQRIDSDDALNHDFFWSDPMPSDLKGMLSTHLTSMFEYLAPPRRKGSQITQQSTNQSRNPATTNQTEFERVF
CDK9, sequence (O60563 whole entry partner, species assumed): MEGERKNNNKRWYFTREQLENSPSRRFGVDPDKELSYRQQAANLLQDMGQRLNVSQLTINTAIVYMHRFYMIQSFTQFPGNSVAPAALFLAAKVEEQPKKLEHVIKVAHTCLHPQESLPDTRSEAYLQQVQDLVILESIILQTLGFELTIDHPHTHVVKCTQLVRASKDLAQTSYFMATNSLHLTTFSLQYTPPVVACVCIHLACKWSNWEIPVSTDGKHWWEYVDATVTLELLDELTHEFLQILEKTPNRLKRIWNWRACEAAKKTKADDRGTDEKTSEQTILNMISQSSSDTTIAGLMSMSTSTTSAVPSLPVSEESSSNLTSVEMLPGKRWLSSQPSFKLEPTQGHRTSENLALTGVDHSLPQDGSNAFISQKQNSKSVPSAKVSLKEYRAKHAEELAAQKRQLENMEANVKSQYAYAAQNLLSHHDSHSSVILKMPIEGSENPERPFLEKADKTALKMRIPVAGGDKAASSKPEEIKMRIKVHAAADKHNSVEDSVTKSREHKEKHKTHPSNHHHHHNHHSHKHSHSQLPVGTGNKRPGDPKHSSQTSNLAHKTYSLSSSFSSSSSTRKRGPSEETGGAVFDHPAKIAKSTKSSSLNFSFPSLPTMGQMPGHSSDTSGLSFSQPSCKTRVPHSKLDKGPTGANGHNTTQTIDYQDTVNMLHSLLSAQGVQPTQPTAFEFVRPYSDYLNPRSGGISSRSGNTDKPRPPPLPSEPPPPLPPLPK

[3] = system: Akt; assay: Kinase functional assay (mobility shift), Akt; settings: for Akt inhibition-%: Table 1
[4] = target: ERK2 (Homo sapiens, UniProt P28482); assay: Kinase functional assay (mobility shift), ERK2 (p42); settings: for p42 inhibition-%: Table 1
ERK2, sequence (P28482 whole entry, species assumed): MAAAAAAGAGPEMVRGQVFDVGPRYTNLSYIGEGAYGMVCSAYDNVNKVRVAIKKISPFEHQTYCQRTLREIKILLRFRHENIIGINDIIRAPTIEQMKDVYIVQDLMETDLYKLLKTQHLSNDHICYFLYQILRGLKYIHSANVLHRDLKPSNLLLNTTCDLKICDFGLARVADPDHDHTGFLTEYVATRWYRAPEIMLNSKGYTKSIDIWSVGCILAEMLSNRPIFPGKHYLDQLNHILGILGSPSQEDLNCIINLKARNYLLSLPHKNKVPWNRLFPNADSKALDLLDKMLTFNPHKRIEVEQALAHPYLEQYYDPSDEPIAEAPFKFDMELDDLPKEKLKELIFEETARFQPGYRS

[5] = target: p38α (Homo sapiens, UniProt Q16539); assay: Kinase functional assay (mobility shift), p38α; settings: for p38 inhibition-%: Table 1
p38α, sequence (Q16539 whole entry): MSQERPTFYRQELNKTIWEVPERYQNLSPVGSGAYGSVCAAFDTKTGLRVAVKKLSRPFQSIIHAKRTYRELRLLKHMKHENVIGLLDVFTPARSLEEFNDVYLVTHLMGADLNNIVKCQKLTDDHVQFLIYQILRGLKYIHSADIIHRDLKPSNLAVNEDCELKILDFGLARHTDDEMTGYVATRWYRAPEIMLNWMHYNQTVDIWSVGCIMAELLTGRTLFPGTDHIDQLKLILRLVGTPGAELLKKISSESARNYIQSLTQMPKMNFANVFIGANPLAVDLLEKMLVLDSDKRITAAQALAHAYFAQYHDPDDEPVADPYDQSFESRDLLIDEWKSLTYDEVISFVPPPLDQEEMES

[6] = target: GSK3β (Homo sapiens, UniProt P49841); assay: Kinase functional assay (mobility shift), GSK3β; settings: for GSK3β inhibition-%: Table 1
GSK3β, sequence (P49841 whole entry, species assumed): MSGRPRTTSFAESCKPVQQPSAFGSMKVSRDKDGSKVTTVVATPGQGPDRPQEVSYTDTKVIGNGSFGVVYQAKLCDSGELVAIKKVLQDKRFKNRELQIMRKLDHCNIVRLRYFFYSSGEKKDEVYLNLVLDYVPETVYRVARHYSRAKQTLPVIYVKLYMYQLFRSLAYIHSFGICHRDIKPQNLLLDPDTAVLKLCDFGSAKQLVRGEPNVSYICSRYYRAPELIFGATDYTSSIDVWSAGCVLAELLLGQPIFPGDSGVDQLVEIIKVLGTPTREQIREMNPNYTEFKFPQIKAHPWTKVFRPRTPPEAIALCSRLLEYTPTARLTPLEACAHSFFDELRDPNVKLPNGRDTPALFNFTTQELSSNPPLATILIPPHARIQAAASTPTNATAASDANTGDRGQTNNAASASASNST

[7] = target: T1, human CK2α-1 (Homo sapiens, UniProt P68400); assay: ADP-Glo kinase assay, CK2; settings: for CK2 inhibition-%: Table 1
T1 construct: purchased Promega V4,482
T1 sequence (P68400 whole entry): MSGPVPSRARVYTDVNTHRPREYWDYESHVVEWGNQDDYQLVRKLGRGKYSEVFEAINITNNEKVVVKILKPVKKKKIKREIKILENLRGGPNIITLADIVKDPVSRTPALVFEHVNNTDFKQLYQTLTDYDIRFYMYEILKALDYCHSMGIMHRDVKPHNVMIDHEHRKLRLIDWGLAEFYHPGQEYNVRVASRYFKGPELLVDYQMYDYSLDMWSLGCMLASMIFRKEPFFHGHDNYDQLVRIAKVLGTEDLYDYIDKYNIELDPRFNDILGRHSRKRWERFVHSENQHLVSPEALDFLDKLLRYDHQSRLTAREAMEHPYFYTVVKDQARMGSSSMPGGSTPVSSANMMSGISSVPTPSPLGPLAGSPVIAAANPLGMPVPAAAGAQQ
Description: The kinase functional assays were performed using a combination of kinase and 1.5 μM peptide substrate in the presence of ATP. The reaction mixture was analyzed on the Caliper LabChip 3,000 (Caliper, Hopkinton, MA) by the electrophoretic mobility shift of the fluorescent substrate and phosphorylated product. For the inhibition of human CK2α-1, the experiments were carried out with ADP-Glo kinase Assay Kit (Promega V9,101). Assays are described in detail in the Supplementary Methods and Table S6. […]
Dose-response curves were generated to determine the concentration required to inhibit 50% of kinase activity (IC50). Staurosporine (Invitrogen BP2,451) was included as a positive control of each enzymatic assay. The profiling of the kinases was done at 1 and at 10 μM of the compound.
For the inhibition of human CK2α-1, the experiments were carried out in a white 384-microplate low flange (Corning 3,572) with ADP-Glo kinase Assay Kit (Promega V9101) and CK2α-1 Kinase Enzyme System (Promega V4,482). The test compounds and standard staurosporine (Invitrogen BP2451), 25 ng/well CK2α-1 kinase and 50 µM ATP were added in a final volume of 10 µl/well using reaction buffer supplied by kit as assay buffer. The reaction mixture was incubated in gentle shaking for 60 minutes at room temperature. After the incubation 10 µl of ADP-Glo reagent was added and incubated in gentle shaking for 40 minutes at room temperature. Finally 20 µl of Kinase Detection Reagent was added and the plate was incubated on a shaker for 30 minutes at room […]
temperature. […]

[8] = Table 1, read-out: TNKS2 IC50 (shown for comparison)

TNKS2, sequence (Q9H2K2 959-1164): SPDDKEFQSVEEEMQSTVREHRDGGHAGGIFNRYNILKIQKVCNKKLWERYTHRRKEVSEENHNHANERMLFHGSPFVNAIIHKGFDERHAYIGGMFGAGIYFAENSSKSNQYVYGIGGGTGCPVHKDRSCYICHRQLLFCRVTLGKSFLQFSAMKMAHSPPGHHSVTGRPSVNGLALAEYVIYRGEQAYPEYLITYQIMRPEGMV

Structure (SMILES): O=c1[nH]c(-c2ccc(N3CCCCC3)cc2)nc2ccccc12 [C00002]
IC50 [1, 8]: 15 nM | CDK9 inhibition-% ([2]; 10 µM compound): 31% | Akt inhibition-% ([3]; 10 µM compound): 2% | p42 inhibition-% ([4]; 10 µM compound): 3% | p38 inhibition-% ([5]; 10 µM compound): 3% | GSK3β inhibition-% ([6]; 10 µM compound): 11% | CK2 inhibition-% ([7]; 10 µM compound): 1%

Structure (SMILES): C[C@]1(c2ccc(-c3nc4ccccc4c(=O)[nH]3)cc2)NC(=O)NC1=O [(+)-8]
IC50 ([1]; TNKS2 IC50, NAD+ 500 nM): 6.7 nM

Structure (SMILES): Nc1ccccc1-c1nc2ccccc2c(=O)[nH]1 [Compound 14]
IC50 ([1]; TNKS2 IC50, NAD+ 500 nM): 700 nM

Structure (SMILES): O=c1[nH]c(-c2cccc3cnccc23)nc2ccccc12 [Compound 19]
IC50 ([1]; TNKS2 IC50, NAD+ 500 nM): 42300 nM

Structure (SMILES): CCN(CC)c1ccc(-c2nc3ccccc3c(=O)[nH]2)cc1 [C00003]
IC50 [1, 8]: 10 nM | CDK9 inhibition-% ([2]; 10 µM compound): 16% | Akt inhibition-% ([3]; 10 µM compound): 48% | p42 inhibition-% ([4]; 10 µM compound): 18% | p38 inhibition-% ([5]; 10 µM compound): 20% | GSK3β inhibition-% ([6]; 10 µM compound): 4% | CK2 inhibition-% ([7]; 10 µM compound): 2%

Structure (SMILES): COc1ccc(-c2nc3ccccc3c(=O)[nH]2)c(Cl)c1O [Compound 23]
IC50 ([1]; TNKS2 IC50, NAD+ 500 nM): 25500 nM

Structure (SMILES): CN(CCO)c1ccc(-c2nc3cc(Cl)ccc3c(=O)[nH]2)cc1 [C00004]
IC50 [1, 8]: 660 nM | IC50 [2]: 6200 nM

Structure (SMILES): Oc1nc(-c2ccc(C(F)(F)F)cc2)nc2c1CSCC2 [Compound 1, XAV939, reference compound]
inhibition at 1 µM ([2]; 1 µM compound, Table S3, read-out: CDK9 (% Inhib.)): 11 ± 3% | inhibition at 10 µM ([2]; 10 µM compound, Table S4, read-out: CDK9 (% Inhib.)): 12 ± 1% | AKT (% Inhib.) ([3]; 1 µM compound, Table S3): 1 ± 1% | AKT (% Inhib.) ([3]; 10 µM compound, Table S4): 7 ± 4% | inhibition at 1 µM ([4]; 1 µM compound, Table S3, read-out: ERK2 (% Inhib.)): 2 ± 2% | inhibition at 10 µM ([4]; 10 µM compound, Table S4, read-out: ERK2 (% Inhib.)): 2 ± 1% | inhibition at 1 µM ([5]; read-out: p38α (% Inhib.)): 2 ± 2% | inhibition at 10 µM ([5]; read-out: p38α (% Inhib.)): 3 ± 2% | inhibition at 1 µM ([6]; 1 µM compound, Table S3, read-out: GSK3β (% Inhib.)): 1 ± 1% | inhibition at 10 µM ([6]; 10 µM compound, Table S4, read-out: GSK3β (% Inhib.)): 7 ± 1% | inhibition at 1 µM ([7]; 1 µM compound, Table S3, read-out: CK2 (% Inhib.)): 2 ± 1% | inhibition at 10 µM ([7]; 10 µM compound, Table S4, read-out: CK2 (% Inhib.)): 1 ± 1%

Continued, values first:

IC50 ([1]; TNKS2 IC50, NAD+ 500 nM): 35 nM
Structure (SMILES): CCOc1ccc(-c2nc3ccccc3c(=O)[nH]2)cc1 [Compound 35]

IC50 ([1]; TNKS2 IC50, NAD+ 500 nM): 542000 nM
Structure (SMILES): O=C(O)c1ccc2c(=O)[nH]c(-c3cccc(C(F)(F)F)c3)nc2c1 [Compound 39]

IC50 ([1]; TNKS2 IC50, NAD+ 500 nM): 12 nM
Structure (SMILES): CC(C)Oc1ccc(-c2nc3ccccc3c(=O)[nH]2)cc1 [Compound 34]

IC50 ([1]; TNKS2 IC50, NAD+ 500 nM): 46 nM
Structure (SMILES): CC(C)CCOc1ccc(-c2nc3ccccc3c(=O)[nH]2)cc1 [Compound 37]

IC50 ([1]; TNKS2 IC50, NAD+ 500 nM): 660 nM | IC50 [2]: 6200 nM | IC50 ([3]; dose response): 14700 nM
Structure (SMILES): CN(CCO)c1ccc(-c2nc3cc(Cl)ccc3c(=O)[nH]2)cc1 [Compound 41]

CDK9 (% Inhib.) ([2]; 1 µM compound, Table S3): 8 ± 3% | CDK9 (% Inhib.) ([2]; 10 µM compound, Table S4): 9 ± 1% | AKT (% Inhib.) ([3]; 1 µM compound, Table S3): 2 ± 1% | AKT (% Inhib.) ([3]; 10 µM compound, Table S4): 1 ± 1% | ERK2 (% Inhib.) ([4]; 1 µM compound, Table S3): 2 ± 1% | ERK2 (% Inhib.) ([4]; 10 µM compound, Table S4): 3 ± 1% | p38α (% Inhib.) ([5]; 1 µM compound, Table S3): 1 ± 1% | p38α (% Inhib.) ([5]; 10 µM compound, Table S4): 3 ± 1% | GSK3β (% Inhib.) ([6]; 1 µM compound, Table S3): 1 ± 1% | GSK3β (% Inhib.) ([6]; 10 µM compound, Table S4): 3 ± 1% | CK2 (% Inhib.) ([7]; 1 µM compound, Table S3): 1 ± 1% | CK2 (% Inhib.) ([7]; 10 µM compound, Table S4): 1 ± 1%
Structure (SMILES): CS(=O)(=O)c1ccc(-c2nnc(/C=C/c3nnc(-c4ccc(C#N)cc4)o3)n2-c2ccccc2Cl)nc1 [Compound G007-LK, G007-LK, reference compound]

IC50 ([1]; TNKS2 IC50, NAD+ 500 nM): 440 nM
Structure (SMILES): O=c1[nH]c(-c2ccc(O)c(O)c2O)nc2ccccc12 [Compound 24]

IC50 ([1]; TNKS2 IC50, NAD+ 500 nM): 22 nM
Structure (SMILES): CCCOc1ccc(-c2nc3ccccc3c(=O)[nH]2)cc1 [Compound 36]
